One experiment deals with T1, human TGR5 (h-TGR5) (Homo sapiens, UniProt Q8TDU6).
T1 construct: expressed in transfected cells
T1 sequence (Q8TDU6 1-330): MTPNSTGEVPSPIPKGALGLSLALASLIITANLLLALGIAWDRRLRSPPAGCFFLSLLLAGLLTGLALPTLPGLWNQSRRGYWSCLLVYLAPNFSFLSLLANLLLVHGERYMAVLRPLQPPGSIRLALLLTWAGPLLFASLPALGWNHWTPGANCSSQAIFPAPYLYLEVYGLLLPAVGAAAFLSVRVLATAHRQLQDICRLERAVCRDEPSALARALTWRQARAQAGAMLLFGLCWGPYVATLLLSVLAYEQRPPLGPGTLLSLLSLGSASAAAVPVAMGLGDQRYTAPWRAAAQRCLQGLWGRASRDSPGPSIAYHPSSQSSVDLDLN
The experiment in a line: TGR5/CRE-Luciferiase Assay (HEK 293 hTGR5/CRE-Luc cells). It counts as cell-based. Particulars: h-TGR5 CRE-Luc EC50, Table 1; read-out: CRE-Luc (EC50). Put shortly:
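HEK293 cells stably carrying hTGR5 and a CRE-luciferase reporter were exposed to serially diluted compounds (diluted in DMEM with 5% DMSO) for 6 h. Cells were then lysed in luciferase buffer, luminescence was read, and EC50 values were derived from dose-response curves.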

In the next experiment the target is T2, h-TGR5 (Homo sapiens, UniProt Q8TDU6).
T2 construct: expressed in transfected cells
T2 sequence (Q8TDU6 1-330): T1 sequence (Q8TDU6 1-330)
Description: TGR5 cAMP Assay using Cisbio cAMP Dynamic2 htrf kit (hTGR5CRE-luc HEK 293 cells). The experiment is classed as cell-based. Particulars: h-TGR5 cAMP EC50, Table 1; read-out: cAMP (EC50). The method, then:
Compounds were diluted in DPBS with 5% DMSO (8-point serial dilution by half logs) in a 96-well plate and 1 μL was transferred to a 384-well assay plate in quadruplicate. The d2-cAMP and anti-cAMP Ab-cryptate stock solution were prepared as per the instructions in the Cisbio™ (Bedford, Mass.) kit. […] Cells were adjusted to 0.44×10^6 cells/ml followed by addition of IBMX to a final concentration of 0.5 mM. The cells were then mixed with d2-cAMP solution (7.1 mL cells+100 ul d2-cAMP) and 4000 cells (9 μL) were transferred to each well of the 384-well assay plate. Cells without d2-cAMP were added to eight wells as a negative control. The plate was covered and incubated at room temp for 30 min. Then 10 μL of Ab-cryptate solution was added to each well of the assay plate and incubated for 1 hr. The plate was read on an EnVision™ plate reader (Perkin-Elmer, Waltham, Mass.) and the DeltaF value was calculated as per the instructions in the Cisbio™ kit.
In the following tables, EC50 values determined according to the TGR5 cAMP Assay described herein (cAMP); EC50 values determined according to the TGR5/CRE-Luciferiase Assay described herein (CRE-Luc). […] The following compounds in Tables 1 and 2 were made by using procedures described in the above Schemes and Examples, and, where applicable, by making any necessary substitutions of known materials that one skilled in the art would ordinarily understand how to do.

Consider 18 compounds from patent publication US8785488B2 (Exelixis Patent Company LLC, priority 2009, dated 2014).

The structures appear in SMILES notation.

In general, EC50 refers to the midpoint of the concentration-response curve. As to `COc1cc(C(C)(C)c2cnc(SCc3ccc(Cl)c(-c4nnn[nH]4)c3)n2-c2ccc(F)cc2)ccc1Cl` [5-[2-chloro-5-({[5-{l-[4-chloro-3-(methyloxy)phenyl]-1-methylethyl}-1-(4-fluorophenyl)-1H-imidazol-2-yl]thio}methyl)phenyl]-1H-tetrazole], the EC50 on human TGR5 (h-TGR5) is less than 100 nM; at h-TGR5, 100 to 1000 nM.

Consider `CC(C)NC(=O)NS(=O)(=O)c1cc(CSc2ncc(C(C)(C)c3ccc(Cl)c(Cl)c3)n2-c2ccc(F)cc2)ccc1Cl` [2-chloro-5-[({5-[1-(3,4-dichlorophenyl)-1-methylethyl]-1-(4-fluorophenyl)-1H-imidazol-2-yl}thio)methyl]-N-{[(1-methylethyl)amino]carbonyl}benzenesulfonamide], for which the EC50 on human TGR5 (h-TGR5) and on h-TGR5 was 100 to 1000 nM each time.

Regarding `CC(C)(c1ccc(F)c(F)c1)c1cnc(SCc2ccc(S(=O)(=O)NC(=O)NN3CCCC3)cc2Cl)n1-c1ccc(F)cc1` [3-chloro-4-[({5-[1-(3,4-difluorophenyl)-1-methylethyl]-1-(4-fluorophenyl)-1H-imidazol-2-yl}thio)methyl]-N-[(pyrrolidin-1-ylamino)carbonyl]benzenesulfonamide], the results for the EC50 on human TGR5 (h-TGR5) and at h-TGR5 were 100 to 1000 nM and 1000 to 10000 nM, respectively.

With `COc1cc(C(C)(C)c2cnc(SCc3ccc(F)cc3Cl)n2-c2ccc(F)cc2)ccc1Cl` [2-{[(2-chloro-4-fluorophenyl)methyl]thio}-5-{1-[4-chloro-3-(methyloxy)phenyl]-1-methylethyl}-1-(4-fluorophenyl)-1H-imidazole], the values for the EC50 on human TGR5 (h-TGR5) and on h-TGR5 were less than 100 nM and 100 to 1000 nM, respectively.

Turning to `CC(C)(c1ccc(Cl)c(Cl)c1)c1cnc(SCC2CCN(S(C)(=O)=O)CC2)n1-c1ccc(F)c(Cl)c1` [4-[({1-(3-chloro-4-fluorophenyl)-5-[1-(3,4-dichlorophenyl)-1-methylethyl]-1H-imidazol-2-yl}thio)methyl]-1-(methylsulfonyl)piperidine], the EC50 was less than 100 nM on human TGR5 (h-TGR5) and 100 to 1000 nM at h-TGR5.

On to `COc1cc(C(C)(C)c2cnc(SCc3c(F)cc(NC(=O)[C@@H](N)CC(=O)O)cc3Cl)n2-c2ccc(F)cc2)ccc1Cl`, for which the EC50 at human TGR5 (h-TGR5) and at h-TGR5 was less than 100 nM each time.

Turning to `COc1ccc(C(C)(C)c2cnc(CSc3c(F)cccc3Cl)n2-c2ccc(F)cc2)cc1OC` [5-{1-[3,4-bis(methyloxy)phenyl]-1-methylethyl}-2-{[(2-chloro-6-fluorophenyl)thio]methyl}-1-(4-fluorophenyl)-1H-imidazole], the EC50 on human TGR5 (h-TGR5) and on h-TGR5 was less than 100 nM each time.

As for `COc1cc(C(C)(C)c2cnc(SCc3ccc(S(=O)(=O)NC(=O)NN4CCCC4)cc3Cl)n2-c2ccc(F)cc2)ccc1F` [3-chloro-4-({[5-{1-[4-fluoro-3-(methyloxy)phenyl]-1-methylethyl}-1-(4-fluorophenyl)-1H-imidazol-2-yl]thio}methyl)-N-[(pyrrolidin-1-ylamino)carbonyl]benzenesulfonamide], the EC50 on human TGR5 (h-TGR5) and at h-TGR5 was 100 to 1000 nM in each case.

`CC(C)(c1ccc(Cl)c(Cl)c1)c1cnc(S(=O)(=O)NCc2ccc(F)cc2Cl)n1-c1ccc(F)cc1` [N-[(2-chloro-4-fluorophenyl)methyl]-5-[1-(3,4-dichlorophenyl)-1-methylethyl]-1-(4-fluorophenyl)-1H-imidazole-2-sulfonamide]: the EC50 was less than 100 nM on human TGR5 (h-TGR5) and 100 to 1000 nM on h-TGR5.

Turning to `COc1cc(C(C)(C)c2cnc(SCc3ccc(S(=O)(=O)NC(=O)NC(C)C)cc3Cl)n2-c2ccc(F)cc2)ccc1Cl` [3-chloro-4-({[5-{1-[4-chloro-3-(methyloxy)phenyl]-1-methylethyl}-1-(4-fluorophenyl)-1H-imidazol-2-yl]thio}methyl)-N-{[(1-methylethyl)amino]carbonyl} benzenesulfonamide], the EC50 at human TGR5 (h-TGR5) is 100 to 1000 nM; at h-TGR5, less than 100 nM.

For the compound `CC(C)(c1ccc(Cl)c(Cl)c1)c1cnc(SCc2ccc(F)c(C(=O)O)c2)n1-c1ccc(F)cc1` [5-[({5-[1-(3,4-dichlorophenyl)-1-methylethyl]-1-(4-fluorophenyl)-1H-imidazol-2-yl}thio)methyl]-2-fluorobenzoic acid], the EC50 on human TGR5 (h-TGR5) and on h-TGR5 was 100 to 1000 nM in each case.

As to `CC(C)NC(=O)NS(=O)(=O)c1ccc(CSc2ncc(C(C)(C)c3ccc(C(F)F)c(F)c3)n2-c2ccc(F)cc2)c(Cl)c1` [3-chloro-4-({[5-{1-[4-(difluoromethyl)-3-fluorophenyl]-1-methylethyl}-1-(4-fluorophenyl)-1H-imidazol-2-yl]thio}methyl)-N-{[(1-methylethyl)amino]carbonyl} benzenesulfonamide], the EC50 at human TGR5 (h-TGR5) and at h-TGR5 was 100 to 1000 nM each time.

On to `COc1cc(C(C)(C)c2cnc(S(=O)(=O)CC3CCN(S(C)(=O)=O)CC3)n2-c2ccc(F)cc2)ccc1Cl` [4-({[5-{1-[4-chloro-3-(methyloxy)phenyl]-1-methylethyl}-1-(4-fluorophenyl)-1H-imidazol-2-yl]sulfonyl}methyl)-1-(methylsulfonyl)piperidine], for which the EC50 at human TGR5 (h-TGR5) and at h-TGR5 was 100 to 1000 nM each time.

Turning to `Cc1cc(-n2c(C(C)(C)c3ccc(Cl)c(Cl)c3)cnc2SCc2c(F)cc(C(=O)O)cc2F)ccc1F` [4-[({5-[1-(3,4-dichlorophenyl)-1-methylethyl]-1-(4-fluoro-3-methylphenyl)-1H-imidazol-2-yl}thio)methyl]-3,5-difluorobenzoic acid], the EC50 at human TGR5 (h-TGR5) and at h-TGR5 was less than 100 nM in each case.

Regarding `COc1cc(C(C)(C)c2cnc(SCc3c(F)cc(C(=O)N[C@H](CCCNC(=N)N)C(=O)O)cc3Cl)n2-c2ccc(F)cc2)ccc1Cl` [N-2-{[3-chloro-4-({[5-{1-[4-chloro-3-(methyloxy)phenyl]-1-methylethyl}-1-(4-fluorophenyl)-1H-imidazol-2-yl]thio}methyl)-5-fluorophenyl]carbonyl}-D-arginine], the EC50 at human TGR5 (h-TGR5) and at h-TGR5 was less than 100 nM throughout.

Regarding `COCCOCCOCCOCCOCCOCCOCCOCCOCCOCCOCCOCCOCCOCCNS(=O)(=O)c1cc(F)c(CSc2ncc(C(C)(C)c3ccc(Cl)c(OC)c3)n2-c2ccc(F)cc2)c(Cl)c1` [3-chloro-4-({[5-{1-[4-chloro-3-(methyloxy)phenyl]-1-methylethyl}-1-(4-fluorophenyl)-1H-imidazol-2-yl]thio}methyl)-5-fluoro-N-3,6,9,12,15,18,21,24,27,30,33,36, 39,42-tetradecaoxatritetracont-1-ylbenzenesulfonamide], the EC50 on human TGR5 (h-TGR5) and on h-TGR5 was less than 100 nM in each case.

As for `COc1ccc(Cc2cnc(SCc3ccc(F)cc3Cl)n2-c2ccc(F)cc2)cc1OC` [5-{[3,4-bis(methyloxy)phenyl]methyl}-2-{[(2-chloro-4-fluorophenyl)methyl]thio}-1-(4-fluorophenyl)-1H-imidazole], the EC50 at human TGR5 (h-TGR5) and on h-TGR5 was less than 100 nM in each case.

With `COc1cc(C(C)(C)c2cnc(SCc3c(F)cc(C(=O)NC(CCCCNC(=N)N)C(=O)O)cc3Cl)n2-c2ccc(F)cc2)ccc1Cl` [N-6-[amino(imino)methyl]-N-2-{[3-chloro-4-({[5-{1-[4-chloro-3-(methyloxy)phenyl]-1-methylethyl}-1-(4-fluorophenyl)-1H-imidazol-2-yl]thio}methyl)-5-fluorophenyl]carbonyl}-L-lysine], the EC50 on human TGR5 (h-TGR5) and at h-TGR5 was less than 100 nM throughout.
